Assay results as given in US20220033363A1, “HERBICIDALLY ACTIVE SUBSTITUTED PHENYLPYRIMIDINE HYDRAZIDES” (Bayer Aktiengesellschaft, priority 2018, published 2022).

Key:
Assay type in all cases: in vivo
[1] = tested on: Echinochloa crus-galli; experiment: Herbicidal pre-emergence action (Method B) against ECHCG; settings: 504 h, scored visually after about 3 weeks vs untreated controls
Excerpt: (§1) Method B: Herbicidal Pre-Emergence Action Seeds of mono- and dicotyledonous weed plants are placed in plastic pots in sandy loam soil (doubly sown with one species each of mono- or dicotyledonous weed plants per pot) and covered with soil. The compounds of the invention, formulated in the form of wettable powders (WP) or as emulsion concentrates (EC), are then applied onto the surface of the covering soil as aqueous suspension or emulsion with addition of 0.5% additive at a water application rate equivalent to 600 liters per hectare. After the treatment, the pots are placed in a greenhouse and kept under good growth conditions for the trial plants. After about 3 weeks, the effect of the preparations is scored visually in comparison with untreated controls as percentages. For example, 100% action=the plants have died, 0% action=like control plants.

[2] = tested on: Lolium rigidum; experiment: Herbicidal pre-emergence action (Method B) against LOLRI; settings: 504 h, scored visually after about 3 weeks vs untreated controls
Excerpt: as §1

[3] = tested on: harmful plants; experiment: Herbicidal post-emergence action (Method A), summary statement; settings: summary of tables A1-A11
Experimental: (§2) Method A: Herbicidal Post-Emergence Action Seeds of mono- and dicotyledonous weed plants are placed in plastic pots in sandy loam soil (twin sowing with one species each of mono- or dicotyledonous weed plants per pot), covered with soil and cultivated in a greenhouse under controlled growth conditions. 2 to 3 weeks after sowing, the test plants are treated at the one-leaf stage. The compounds of the invention, formulated in the form of wettable powders (WP) or as emulsion concentrates (EC), are applied to the green parts of the plants as aqueous suspension or emulsion with addition of 0.5% additive at a water application rate equivalent to 600 liters per hectare. After the test plants have been kept in the greenhouse under optimum growth conditions for about 3 weeks, the activity of the preparations is rated visually in comparison to untreated controls. For example, 100% activity=the plants have died, 0% activity=like control plants.

[4] = tested on: Matricaria inodora; experiment: Herbicidal pre-emergence action (Method B) against MATIN; settings: Tripleurospermum inodorum, 504 h, scored visually after about 3 weeks vs untreated controls
Excerpt: as §1

[5] = tested on: Stellaria media; experiment: Herbicidal post-emergence action (Method A) against STEME; settings: 504 h, rated visually after about 3 weeks vs untreated controls
Experimental: as §2

[6] = tested on: Stellaria media; experiment: Herbicidal pre-emergence action (Method B) against STEME; settings: 504 h; for pest or weed control at 320 g/ha: dosage 320 g/ha; for pest or weed control at 1280 g/ha: dosage 1280 g/ha
Excerpt: as §1

[7] = tested on: Matricaria inodora; experiment: Herbicidal post-emergence action (Method A) against MATIN; settings: rated visually after about 3 weeks vs untreated controls
Experimental: as §2

[8] = tested on: Lolium rigidum; experiment: Herbicidal post-emergence action (Method A) against LOLRI; settings: rated visually after about 3 weeks vs untreated controls; for pest or weed control at 1280 g/ha: Lolium rigidum, post-emergence, 504 h
Experimental: as §2

[9] = tested on: Poa annua; experiment: Herbicidal post-emergence action (Method A) against POAAN; settings: 504 h, rated visually after about 3 weeks vs untreated controls; for pest or weed control at 320 g/ha: read-out: Post-emergence action at 320 g/ha against POANN; for pest or weed control at 1280 g/ha: read-out: Post-emergence action at 1280 g/ha against POANN
Experimental: as §2

[10] = tested on: Poa annua; experiment: Herbicidal pre-emergence action (Method B) against POAAN; settings: 504 h, scored visually after about 3 weeks vs untreated controls
Excerpt: as §1

[11] = tested on: Amaranthus retroflexus; experiment: Herbicidal post-emergence action (Method A) against AMARE; settings: rated visually after about 3 weeks vs untreated controls
Experimental: as §2

[12] = tested on: Echinochloa crus-galli; experiment: Herbicidal post-emergence action (Method A) against ECHCG; settings: rated visually after about 3 weeks vs untreated controls; for pest or weed control at 1280 g/ha: Echinochloa crus-galli, post-emergence, 504 h
Experimental: as §2

[13] = tested on: Setaria viridis; experiment: Herbicidal pre-emergence action (Method B) against SETVI; settings: 1280 g/ha, scored visually after about 3 weeks vs untreated controls
Excerpt: as §1

[14] = tested on: Abutilon theophrast; experiment: Herbicidal pre-emergence action (Method B) against ABUTH; settings: 1280 g/ha, scored visually after about 3 weeks vs untreated controls
Excerpt: as §1

Compound: CN(N)C(=O)c1nc(C2CC2)ncc1-c1ccccc1Cl [Example I-500, 5-(2-chlorophenyl)-2-cyclopropyl-N-methylpyrimidine-4-carbohydrazide]
- pest or weed control at 320 g/ha [1]: 90%
- pest or weed control at 1280 g/ha [1]: 100%
- pest or weed control at 320 g/ha [2]: 90%
- pest or weed control at 1280 g/ha [2]: 100%
- herbicidal efficacy against harmful plants in the case of post-emergence treatment [3]: good herbicidal efficacy
- pest or weed control at 1280 g/ha [4]: 100%
- pest or weed control at 320 g/ha [5]: 100%
- pest or weed control at 1280 g/ha [5]: 100%
- pest or weed control at 320 g/ha [6]: 100%
- pest or weed control at 1280 g/ha [6]: 100%
- Post-emergence action at 320 g/ha against MATIN ([7]; 320 g/ha): 90%
- Post-emergence action at 1280 g/ha against MATIN [7]: 90%
- pest or weed control at 1280 g/ha [8]: 90%
- pest or weed control at 320 g/ha [9]: 100%
- pest or weed control at 1280 g/ha [9]: 100%
- pest or weed control at 320 g/ha [10]: 100%
- pest or weed control at 1280 g/ha [10]: 100%
- Post-emergence action at 1280 g/ha against AMARE [11]: 100%

Compound: CN(C)NC(=O)c1nc(C2CC2)ncc1-c1ccccc1Cl [Example I-501, 5-(2-chlorophenyl)-2-cyclopropyl-N′,N′-dimethylpyrimidine-4-carbohydrazide]
- pest or weed control at 320 g/ha [1]: 100%
- pest or weed control at 1280 g/ha [1]: 100%
- Post-emergence action at 320 g/ha against ECHCG [12]: 100%
- pest or weed control at 1280 g/ha [12]: 100%
- pest or weed control at 320 g/ha [2]: 100%
- pest or weed control at 1280 g/ha [2]: 100%
- pest or weed control at 320 g/ha [4]: 100%
- pest or weed control at 1280 g/ha [4]: 100%
- pest or weed control at 320 g/ha [5]: 100%
- pest or weed control at 1280 g/ha [5]: 100%
- pest or weed control at 320 g/ha [6]: 100%
- pest or weed control at 1280 g/ha [6]: 100%
- Post-emergence action at 1280 g/ha against MATIN [7]: 90%
- Post-emergence action at 320 g/ha against LOLRI [8]: 100%
- pest or weed control at 1280 g/ha [8]: 100%
- pest or weed control at 320 g/ha [9]: 100%
- pest or weed control at 1280 g/ha [9]: 100%
- pest or weed control at 320 g/ha [10]: 100%
- pest or weed control at 1280 g/ha [10]: 100%
- Post-emergence action at 1280 g/ha against AMARE [11]: 100%

Compound: O=C(NNc1ccccn1)c1nc(C2CC2)ncc1-c1ccccc1Cl [Example I-510, 5-(2-chlorophenyl)-2-cyclopropyl-N′-(pyridin-2-yl)pyrimidine-4-carbohydrazide]
- pest or weed control at 320 g/ha [1]: 100%
- pest or weed control at 1280 g/ha [1]: 100%
- Pre-emergence action against SETVI [13]: 90%
- Post-emergence action at 320 g/ha against ECHCG [12]: 90%
- pest or weed control at 1280 g/ha [12]: 90%
- pest or weed control at 320 g/ha [2]: 100%
- pest or weed control at 1280 g/ha [2]: 100%
- pest or weed control at 320 g/ha [4]: 100%
- pest or weed control at 1280 g/ha [4]: 100%
- pest or weed control at 320 g/ha [5]: 100%
- pest or weed control at 1280 g/ha [5]: 100%
- pest or weed control at 320 g/ha [6]: 100%
- pest or weed control at 1280 g/ha [6]: 100%
- Post-emergence action at 1280 g/ha against MATIN [7]: 90%
- Post-emergence action at 320 g/ha against LOLRI [8]: 90%
- pest or weed control at 1280 g/ha [8]: 90%
- pest or weed control at 320 g/ha [9]: 100%
- pest or weed control at 1280 g/ha [9]: 100%
- pest or weed control at 320 g/ha [10]: 100%
- pest or weed control at 1280 g/ha [10]: 100%
- Post-emergence action at 1280 g/ha against AMARE [11]: 100%

Compound: CC(=O)N(NC(=O)c1nc(C2CC2)ncc1-c1ccccc1Cl)c1ccccn1 [Example I-513, N′-acetyl-5-(2-chlorophenyl)-2-cyclopropyl-N′-(pyridin-2-yl)pyrimidine-4-carbohydrazide]
- pest or weed control at 1280 g/ha [1]: 100%
- Post-emergence action at 320 g/ha against ECHCG [12]: 100%
- pest or weed control at 1280 g/ha [12]: 100%
- pest or weed control at 1280 g/ha [2]: 90%
- pest or weed control at 1280 g/ha [4]: 100%
- pest or weed control at 320 g/ha [5]: 100%
- pest or weed control at 1280 g/ha [5]: 100%
- pest or weed control at 320 g/ha [6]: 100%
- pest or weed control at 1280 g/ha [6]: 100%
- Post-emergence action at 1280 g/ha against MATIN [7]: 90%
- pest or weed control at 1280 g/ha [8]: 100%
- pest or weed control at 320 g/ha [9]: 100%
- pest or weed control at 1280 g/ha [9]: 100%
- pest or weed control at 320 g/ha [10]: 100%
- pest or weed control at 1280 g/ha [10]: 100%

Compound: CN(NC(=O)c1nc(C2CC2)ncc1-c1ccccc1Cl)C(=O)OC(C)(C)C [Example I-548, tert-butyl 2-{[5-(2-chlorophenyl)-2-cyclopropylpyrimidin-4-yl]carbonyl}-1-methylhydrazinecarboxylate]
- pest or weed control at 320 g/ha [1]: 90%
- pest or weed control at 1280 g/ha [1]: 100%
- pest or weed control at 1280 g/ha [12]: 90%
- pest or weed control at 1280 g/ha [2]: 90%
- pest or weed control at 320 g/ha [6]: 100%
- pest or weed control at 1280 g/ha [6]: 100%
- pest or weed control at 1280 g/ha [9]: 90%
- pest or weed control at 320 g/ha [10]: 100%
- pest or weed control at 1280 g/ha [10]: 100%

Compound: CCNC(=O)NNC(=O)c1nc(C2CC2)ncc1-c1ccccc1Cl [Example I-552, 2-{[5-(2-chlorophenyl)-2-cyclopropylpyrimidin-4-yl]carbonyl}-N-ethylhydrazinecarboxamide]
- pest or weed control at 1280 g/ha [1]: 90%
- Post-emergence action at 320 g/ha against ECHCG [12]: 90%
- pest or weed control at 1280 g/ha [12]: 100%
- pest or weed control at 320 g/ha [2]: 90%
- pest or weed control at 1280 g/ha [2]: 90%
- Pre-emergence action against ABUTH [14]: 90%
- pest or weed control at 320 g/ha [4]: 90%
- pest or weed control at 1280 g/ha [4]: 100%
- pest or weed control at 1280 g/ha [5]: 100%
- pest or weed control at 320 g/ha [6]: 100%
- pest or weed control at 1280 g/ha [6]: 100%
- Post-emergence action at 1280 g/ha against MATIN [7]: 90%
- Post-emergence action at 320 g/ha against LOLRI [8]: 90%
- pest or weed control at 1280 g/ha [8]: 90%
- pest or weed control at 320 g/ha [9]: 100%
- pest or weed control at 1280 g/ha [9]: 100%
- pest or weed control at 320 g/ha [10]: 100%
- pest or weed control at 1280 g/ha [10]: 100%

Compound: O=C(NN=C1CCOCC1)c1nc(C2CC2)ncc1-c1ccccc1Cl [Example I-559, 5-(2-chlorophenyl)-2-cyclopropyl-N′-(tetrahydro-4H-pyran-4-ylidene)pyrimidine-4-carbohydrazide]
- pest or weed control at 320 g/ha [1]: 90%
- pest or weed control at 1280 g/ha [1]: 100%
- Post-emergence action at 320 g/ha against ECHCG [12]: 90%
- pest or weed control at 1280 g/ha [12]: 90%
- pest or weed control at 320 g/ha [2]: 100%
- pest or weed control at 1280 g/ha [2]: 100%
- herbicidal efficacy against harmful plants in the case of post-emergence treatment [3]: good herbicidal efficacy
- pest or weed control at 320 g/ha [4]: 100%
- pest or weed control at 1280 g/ha [4]: 100%
- pest or weed control at 320 g/ha [5]: 90%
- pest or weed control at 1280 g/ha [5]: 100%
- pest or weed control at 320 g/ha [6]: 100%
- pest or weed control at 1280 g/ha [6]: 100%
- Post-emergence action at 320 g/ha against LOLRI [8]: 90%
- pest or weed control at 1280 g/ha [8]: 100%
- pest or weed control at 320 g/ha [9]: 100%
- pest or weed control at 1280 g/ha [9]: 100%
- pest or weed control at 320 g/ha [10]: 100%
- pest or weed control at 1280 g/ha [10]: 100%

Compound: CCOC(=O)NNC(=O)c1nc(C2CC2)ncc1-c1ccc(F)cc1Cl [Example I-2591, ethyl 2-{[5-(2-chloro-4-fluorophenyl)-2-cyclopropylpyrimidin-4-yl]carbonyl}hydrazinecarboxylate]
- pest or weed control at 1280 g/ha [1]: 100%
- pest or weed control at 1280 g/ha [12]: 90%
- pest or weed control at 1280 g/ha [2]: 100%
- pest or weed control at 1280 g/ha [4]: 90%
- pest or weed control at 1280 g/ha [5]: 100%
- pest or weed control at 320 g/ha [6]: 100%
- pest or weed control at 1280 g/ha [6]: 100%
- pest or weed control at 320 g/ha [9]: 100%
- pest or weed control at 1280 g/ha [9]: 100%
- pest or weed control at 320 g/ha [10]: 100%
- pest or weed control at 1280 g/ha [10]: 100%
